The term AUC(0-inf) denotes total exposure, with the tail of the curve extrapolated. A low value points to less exposure. As a reminder, the Cmax is the highest concentration seen after dosing. What is called Tmax is the time from dosing to the highest level. Usually half-life stands for the time in which the quantity being followed falls by half. A lower half-life goes with fast loss.

SMILES strings stand for the structures. Changes are numbered by the printed parent chain.

The record followed here is patent US12583855B2, “RET selective inhibitor, preparation method therefor and use thereof” (SHOUYAO HOLDINGS (BEIJING) CO., LTD., priority 2019, dated 2026).

The target of one series is T1, RET^WT (Homo sapiens, UniProt P07949).
T1 construct: GST-RET^WT (658-1114 aa, final concentration of 0.5 nM)
T1 sequence (P07949 658-1114): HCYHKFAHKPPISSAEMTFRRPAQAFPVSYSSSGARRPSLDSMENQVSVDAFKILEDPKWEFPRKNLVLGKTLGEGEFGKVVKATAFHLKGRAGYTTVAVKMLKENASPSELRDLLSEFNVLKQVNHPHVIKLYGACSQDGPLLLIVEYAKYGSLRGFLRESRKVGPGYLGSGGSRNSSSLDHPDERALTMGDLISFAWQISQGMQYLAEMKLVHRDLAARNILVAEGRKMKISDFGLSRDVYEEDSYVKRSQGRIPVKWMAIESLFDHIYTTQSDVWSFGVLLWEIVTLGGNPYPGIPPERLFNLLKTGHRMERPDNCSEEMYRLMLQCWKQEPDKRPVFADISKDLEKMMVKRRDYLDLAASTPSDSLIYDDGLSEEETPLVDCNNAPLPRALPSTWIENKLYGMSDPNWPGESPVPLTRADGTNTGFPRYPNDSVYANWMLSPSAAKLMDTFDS
Kind of series: In vitro enzymatic activity assay on RET^WT (HTRF). The conditions noted are these: GST-RET^WT (658-1114 aa) 0.5 nM, ATP 25 μM. The format is biochemical. The essentials:
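Reaction run 2 h at 23 °C in HEPES pH 7.5 buffer with Na3VO4, MgCl2, DTT, Tween 20 and BSA; compounds tested at 7 concentrations (5-fold serial dilution in DMSO from 0.2 mM stock). HTRF detection with TK antibody and streptavidin-XL665; IC50 from curve fitting.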
In general terms: TR-FRET usually uses a lanthanide donor and a delayed reading to cut background.

The target in another series is T2, RET^V804M (Homo sapiens, UniProt P07949, V804M).
T2 construct: GST-RET^V804M (658-1114 aa, final concentration of 0.02 nM)
T2 sequence (P07949 658-1114 V804M): T1 sequence (P07949 658-1114) with V147M
Nature of the series: In vitro enzymatic activity assay on RET^V804M (HTRF). The format is biochemical. As to conditions: GST-RET^V804M (658-1114 aa) 0.02 nM, ATP 1.5 μM.

Another series addresses VEGFR2 (Homo sapiens, UniProt P35968). Nature of the series: In vitro enzymatic activity assay on VEGFR2 (HTRF). Format: biochemical. The conditions noted are these: GST-VEGFR2 0.1 nM, ATP 2.5 μM. The method in brief: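 GST-VEGFR2 (0.1 nM final) with 2.5 μM ATP and 1 μM TK peptide substrate in HEPES pH 7.5 buffer with Mg²⁺/Mn²⁺, 1.5 h at 23 °C. HTRF read-out (665/620 nm ratio) after adding TK antibody and streptavidin-XL665. IC50 from 7-point, 5-fold dilution series.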

The test system of the next series is TT cells. Kind of series: TT cell proliferation activity (Cell-Titer Glo). Format: cell-based. The conditions noted are these: TT human thyroid carcinoma cells, 120 h. As to the method: 4. Determination of TT Cell Proliferation Activity of Compounds
TT cells, a human thyroid carcinoma cell line, were cultured in Ham's F-12K medium supplemented with 15% fetal bovine serum (FBS, purchased from Biological Industries, BI) and 1% penicillin/streptomycin double antibody (P/S, purchased from Life Technology) under conditions of 37° C. and 5% CO2. TT cells were plated in a 96-well plate (#3917 purchased from Corning) at a concentration of 5000 cells/195 μL/well the day before compound was detected. The compounds were diluted 3-fold with 100% DMSO starting from 10 mM (10 concentrations in total) after 24 h, and 2 μL of each concentration was diluted in 48 μL of Ham's F-12K medium. 5 μL of each diluted compound was added to the plated Cell suspension, the compound and cells were co-incubated in a cell incubator for 120 h (5 days), after the medium was aspirated. 25 μL of Cell-Titer Glo (G7570, purchased from Promega) reagent was added and re-incubated for 5-10 min. Fluorescence value was then read on Envision and the data were calculated using GraphPad Prism software to obtain IC50 values for inhibition of cell proliferation by the compounds.

A further series deals with KIF5B-RET/HEK293T cells. Kind of series: Cell proliferation activity in KIF5B-RET/HEK293T cells (Cell-Titer Glo). The format is cell-based. As to conditions: Homo sapiens, HEK-293T, 72 h, read-out: KIFSB-RETV^804M/293T (Cell)IC50.
Series [1] in a line: Pharmacokinetic data of compounds in male SD rats. Format: in vivo. As to conditions: rat, po, intragastric, 5 mg/kg, suspension MC 0.5%, plasma. As for the experimental part: 6. Pharmacokinetic Data of Compounds
Male SD rats (Beijing Vital River Laboratory Animal Technology Co., Ltd) were divided into groups. 3 in each group, received intragastric administration with the suspension of the test sample (5 mg/kg, suspensions MC 0.5%), respectively. Animals were fasted overnight prior to the experiment from 10 h before dosing to 4 h after dosing. Blood was collected 0.25, 0.5, 1, 2, 4, 6, 8, and 24 h after administration, respectively. After isoflurane anesthesia using a small animal anesthesia machine, 0.3 mL of whole blood samples was taken through the fundus venous plexus, placed in a heparin anticoagulant tube, and were centrifuged at 4° C. 4000 rpm for 5 min plasma was transferred to the centrifuge tube, and stored at −80° C. until analysis. Samples in the plasma were extracted using protein precipitation and the extracts were analyzed by LC/MS.

Sequence of VEGFR2 (P35968 20-1356): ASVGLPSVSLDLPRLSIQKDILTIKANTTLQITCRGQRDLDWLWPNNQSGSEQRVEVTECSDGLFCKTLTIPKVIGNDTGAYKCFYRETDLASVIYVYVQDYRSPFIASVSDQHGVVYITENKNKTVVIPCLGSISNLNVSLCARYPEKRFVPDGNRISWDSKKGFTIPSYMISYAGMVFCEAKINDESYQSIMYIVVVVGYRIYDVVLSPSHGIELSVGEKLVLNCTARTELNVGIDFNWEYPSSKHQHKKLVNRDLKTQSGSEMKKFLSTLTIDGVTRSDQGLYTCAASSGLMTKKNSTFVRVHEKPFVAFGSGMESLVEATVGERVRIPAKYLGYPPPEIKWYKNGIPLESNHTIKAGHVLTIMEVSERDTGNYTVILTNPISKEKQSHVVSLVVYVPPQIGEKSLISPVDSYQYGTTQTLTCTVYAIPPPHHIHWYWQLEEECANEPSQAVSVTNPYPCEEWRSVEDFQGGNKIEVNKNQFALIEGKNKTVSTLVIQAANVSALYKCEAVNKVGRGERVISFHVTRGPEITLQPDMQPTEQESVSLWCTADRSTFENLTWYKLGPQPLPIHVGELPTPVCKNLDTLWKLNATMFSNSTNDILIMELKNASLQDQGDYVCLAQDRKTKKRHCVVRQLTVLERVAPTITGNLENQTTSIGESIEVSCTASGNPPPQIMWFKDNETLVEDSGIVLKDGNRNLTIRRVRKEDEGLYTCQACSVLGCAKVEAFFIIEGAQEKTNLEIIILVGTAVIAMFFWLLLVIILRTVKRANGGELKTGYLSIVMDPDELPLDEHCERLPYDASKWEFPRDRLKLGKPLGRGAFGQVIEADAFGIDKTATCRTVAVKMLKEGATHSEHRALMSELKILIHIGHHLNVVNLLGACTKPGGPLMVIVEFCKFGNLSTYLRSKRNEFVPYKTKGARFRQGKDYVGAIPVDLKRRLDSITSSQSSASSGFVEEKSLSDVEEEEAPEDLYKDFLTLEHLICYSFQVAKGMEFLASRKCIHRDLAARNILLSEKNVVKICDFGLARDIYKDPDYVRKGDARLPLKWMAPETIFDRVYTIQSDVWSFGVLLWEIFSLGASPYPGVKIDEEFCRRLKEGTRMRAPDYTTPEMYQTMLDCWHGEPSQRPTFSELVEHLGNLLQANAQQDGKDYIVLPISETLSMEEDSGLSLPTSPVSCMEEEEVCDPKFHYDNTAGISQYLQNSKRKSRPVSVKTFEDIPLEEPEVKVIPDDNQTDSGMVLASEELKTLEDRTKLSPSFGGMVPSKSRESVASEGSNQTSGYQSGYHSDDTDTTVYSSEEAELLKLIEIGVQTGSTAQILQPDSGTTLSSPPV

For `CC1(O)CN(c2cc(-c3ccc(N4CC5CC(C4)N5Cc4cccc(S(C)(=O)=O)c4)nc3)c3c(C#N)cnn3c2)C1` [Example 65, 6-(3-hydroxy-3-methylazetidin-1-yl)-4-(6-(6-(3-(methylsulfonyl)benzyl)-3,6-diazabicyclo[3.1.1]heptan-3-yl)pyridin-3-yl)pyrazolo[1,5-a]pyridine-3-carbonitrile], the IC50 at RET^WT is 0.67 nM; against RET^V804M, 1.85 nM; against VEGFR2, 19.4 nM; in the series with TT cells, 24.1 nM; in the series on KIF5B-RET/HEK293T cells, 349 nM.
In turn, `CS(=O)(=O)c1ccc(CN2C3CC2CN(c2ccc(-c4cc(-c5cnn(C(F)F)c5)cn5ncc(C#N)c45)cn2)C3)cc1` [Example 45, 6-(1-difluoromethyl-1Hpyrazol-4-yl)-4-(6-(6-(4-(methylsulfonyl)benzyl)-3,6-diazabicyclo[3.1.1]heptan-3-yl)pyridin-3-yl) pyrazolo[1,5-a] pyridine-3-carbonitrile] came in with an IC50 at RET^WT of 0.159 nM. Besides, the IC50 at RET^V804M came out at 0.822 nM. The molecule further registered an IC50 against VEGFR2 of 4.96 nM. This molecule registered an IC50 with TT cells of 22.7 nM. In addition, in series [1], the AUC(0-inf) turned out to be 27500 ng·h/mL, the Cmax amounted to 3560 ng/mL, the Tmax is 1.83 h and the half-life was 3.21 h.
Molecule `Cn1cc(-c2cc(-c3ccc(N4CCN(Cc5cccc(S(C)(=O)=O)c5)CC4)nc3)c3c(C#N)cnn3c2)cn1` [Example 15, 6-(1-methyl-1Hpyrazol-4-yl)-4-(6-(4-(3-(methylsulfonyl)benzyl)piperazin-1-yl)pyridin-3-yl)pyrazolo[1,5-a]pyridine-3-carbonitrile] displayed an IC50 at VEGFR2 of 11.8 nM. The IC50 in the series on TT cells came out at 17.8 nM. In addition, in series [1], the AUC(0-inf) was 6650 ng·h/mL, the Cmax is 1330 ng/mL, the Tmax is 1.17 h and the half-life was 3.56 h.
In the case of `Cn1cc(-c2cc(-c3ccc(N4CC5CC(C4)N5Cc4ccc(S(C)(=O)=O)cc4)nc3)c3c(C#N)cnn3c2)cn1` [Example 25, 6-(1-methyl-1Hpyrazol-4-yl)-4-(6-(6-(4-(methylsulfonyl)benzyl)-3,6-diazabicyclo[3.1.1]heptan-3-yl)pyridin-3-yl)pyrazolo[1,5-a]pyridine-3-carbonitrile], the IC50 against RET^WT amounted to 0.148 nM; on RET^V804M, 0.236 nM; in the series on TT cells, 5.96 nM; with KIF5B-RET/HEK293T cells, 146 nM.
Consider `Cn1cc(-c2cc(-c3ccc(N4CC5CC(C4)N5Cc4cccc(S(C)(=O)=O)c4)nc3)c3c(C#N)cnn3c2)cn1` [Example 20, 6-(1-methyl-1Hpyrazol-4-yl)-4-(6-(6-(3-(methylsulfonyl)benzyl)-3,6-diazabicyclo[3.1.1]heptan-3-yl)pyridin-3-yl)pyrazolo[1,5-a]pyridine-3-carbonitrile], for which the IC50 against RET^WT turned out to be 0.092 nM; at RET^V804M, 0.237 nM; on VEGFR2, 6.44 nM; with TT cells it was 6.58 nM; in the series with KIF5B-RET/HEK293T cells, 146 nM.
As to `CSc1ccc(CN2C3CC2CN(c2ccc(-c4cc(-c5cnn(C)c5)cn5ncc(C#N)c45)cn2)C3)nc1` [Example 22, 6-(1-methyl-1Hpyrazol-4-yl)-4-(6-(6-((5-(methylthio)pyridin-2-yl)methyl)-3,6-diazabicyclo[3.1.1]heptan-3-yl)pyridin-3-yl)pyrazolo[1,5-a]pyridine-3-carbonitrile], the IC50 is 0.124 nM on RET^WT, 0.242 nM against RET^V804M, 12.9 nM in the series on TT cells and 147 nM with KIF5B-RET/HEK293T cells.
In the case of `CSc1ccc(CN2CCN(c3ccc(-c4cc(-c5cnn(C)c5)cn5ncc(C#N)c45)cn3)CC2)cc1` [Example 17, 6-(1-methyl-1Hpyrazol-4-yl)-4-(6-(4-(4-(methylthio)benzyl)piperazin-1-yl)pyridin-3-yl)pyrazolo[1,5-a]pyridine-3-carbonitrile], the IC50 on VEGFR2 is 14.1 nM; in the series on KIF5B-RET/HEK293T cells it was 394 nM.
Consider `CSc1cc(CN2C3CC2CN(c2ccc(-c4cc(-c5cnn(C(F)F)c5)cn5ncc(C#N)c45)cn2)C3)ccn1` [Example 72, 6-(1-(difluoromethyl)-1Hpyrazol-4-yl)-4-(6(6-((2-(methylthio)pyridin-4-yl)methyl)-3,6-diazabicyclo[3.1.1]heptan-3-yl)pyridin-3-yl)pyrazolo[1,5-a]pyridine-3-carbonitrile], for which the IC50 was 0.147 nM on RET^WT; 0.735 nM against RET^V804M; 7.74 nM against VEGFR2; 24.9 nM with TT cells; 387 nM in the series with KIF5B-RET/HEK293T cells.
As to `CN(C)C(=S)N1CCN(c2ccc(-c3cc(-c4cnn(C)c4)cn4ncc(C#N)c34)cn2)CC1` [Example 8, 4-(5-(3-cyano-6-(1-methyl-1Hpyrazol-4-yl)pyrazolo[1,5-a]pyridine-4-yl)pyridin-2-yl)-N,N-dimethylpiperazin-1-carbothioamide], the IC50 against RET^WT came out at 0.863 nM; against RET^V804M, 0.908 nM; at VEGFR2, 9.15 nM; in the series with TT cells, 14 nM; in the series with KIF5B-RET/HEK293T cells it was 162 nM.
The molecule `Cn1cc(-c2cc(-c3ccc(N4CCN(Cc5ccc(S(C)(=O)=O)cc5)CC4)nc3)c3c(C#N)cnn3c2)cn1` [Example 16, 6-(1-methyl-1Hpyrazol-4-yl)-4-(6-(4-(4-(methylsulfonyl)benzyl)piperazin-1-yl)pyridin-3-yl)pyrazolo[1,5-a]pyridine-3-carbonitrile] came in with an IC50 on VEGFR2 of 8.95 nM. The molecule further came in with an IC50 in the series with TT cells of 36.7 nM. In series [1], the AUC(0-inf) worked out at 42700 ng·h/mL, the peak level (Cmax) was 3790 ng/mL, the Tmax worked out at 4 h and the half-life is 4.08 h.
Regarding `CSc1ccc(CN2CCN(c3ccc(-c4cc(-c5cnn(C)c5)cn5ncc(C#N)c45)cn3)CC2)cn1` [Example 10, 6-(1-methyl-1Hpyrazol-4-yl)-4-(6-(4-((6-(methylthio)pyridin-3-yl)methyl)piperazin-1-yl)pyridin-3-yl)pyrazolo[1,5-a]pyridine-3-carbonitrile], at VEGFR2, the IC50 was 13.9 nM. In addition, in the series with TT cells, the IC50 amounted to 23.8 nM. Further, in series [1], the AUC(0-inf) amounted to 15300 ng·h/mL, the Cmax worked out at 1490 ng/mL, the Tmax came to 4 h and the half-life is 3.38 h.
